Measurements: the supplement of paper PMC6723410

Test system: GUMC-403
Assay: viability at highest tested concentration (max response) relative to DMSO (% of DMSO control); higher = less cytotoxic
Settings: library / dose series: MIPE library, 11-point 1:3 dilution, 48 h
How it was run: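 Plates of 1536 wells were seeded with 700 patient-derived GUMC-403 papilloma cells per well, grown by conditional reprogramming, in 5 μL F + Y medium and kept overnight at 37 °C. Compounds followed at 23 nL by pin tool over an 11-point 1:3 series, for 48 h. After a CellTiter-Glo luminescence read on a ViewLux, signals were set against vehicle wells as 100% and empty wells as 0%. The reported number is viability at the highest tested concentration relative to vehicle control.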

Compound | viability (top concentration 46.1 µM) | other results
Nc1ccn([C@H]2CS[C@@H](CO)O2)c(=O)n1 |  | viability (top concentration 92.2 µM): 106
CC(C)(C)C(=O)Oc1ccc([S+](=O)([O-])Nc2ccccc2C(=O)NCC(=O)O)cc1 | 113 | 
OC[C@H](Cc1ccccc1)Nc1nc(Oc2ccc3c(c2)CCC3)nc2c1ncn2Cc1ccc(-c2ccccc2)cc1 | 101 | 
COC1=CC=CC(=C1N)\C2=C\C(=O)C3=C(O2)C=CC=C3 | 57.1 | 
[NH2][Pt]([NH2])([Cl])[Cl] | 128 | 
O=NN(CCCl)C(=O)NC1CCCCC1 | 124 | 
CCCCCOC(=O)NC\1=N\C(=O)N(\C=C1F)[C@@H]2O[C@H](C)[C@@H](O)[C@H]2O | 83.9 | 
CN1CCCC(CC1)N2\N=C(CC3=CC=C(Cl)C=C3)/C4=C(C=CC=C4)C2=O (stereo unspecified) | 78.8 | 
O=C1N\C=N/C2=C1C=N[NH]2 | 106 | 
C[C@@H](NC1=CC=CC=C1C(O)=O)C/2=C/C(=C\N3C(=O)/C=C(\N=C23)N4CCOCC4)C |  | viability (top concentration 92.2 µM): 34.9
O=C(O[C@H]1C[C@H]2CC[C@@H](C1)[N+]21CCCC1)C(O)(c1ccccc1)c1ccccc1.[Cl-] | 140 | 
C[S+](=O)([O-])OCCCCO[S+](C)(=O)[O-] | 134 | 
COc1ccc(C2Sc3ccccc3N(CCN(C)C)C(=O)C2OC(C)=O)cc1 (stereo unspecified) | 110 | 
COC1=CC=CC(=C1/C2=N/CC3=C(N=C(NC4=CC(=C(C=C4)C(O)=O)OC)N=C3)C5=CC=C(Cl)C=C25)F | 45.4 | 
O=C(CO)N1CCC(c2n[nH]c(-c3ccc(Cl)cc3)c2-c2ccncn2)CC1 | 109 | 
CN1CCC[C@@H]1CCO[C@](C)(c1ccccc1)c1ccc(Cl)cc1 | 103 | 
c1cc2c(cc1[C@H]1OC[C@H]3[C@@H]1CO[C@@H]3c1ccc3c(c1)OCO3)OCO2 | 124 | 
O=C(NOC[C@H](O)CO)c1ccc(F)c(F)c1Nc1ccc(I)cc1F | 101 | 
NC[C@H]1O[C@H](O[C@@H]2[C@H](O)[C@@H](O[C@H]3O[C@H](CO)[C@@H](O)[C@H](N)[C@H]3O)[C@H](N)C[C@@H]2N)[C@H](O)[C@@H](O)[C@@H]1O | 103 | 
CCc1cc2c(cc1N1CCC(N3CCOCC3)CC1)C(C)(C)c1[nH]c3cc(C#N)ccc3c1C2=O | 97.8 | 
CC(C)(CO)[C@@H](O)C(=O)NCCC(=O)O | 82.6 | 
COc1cc2ncnc(Nc3cccc(Cl)c3)c2cc1OC | 98.8 | 

Compound | viability (top concentration 46.1 µM) | other results
COc1cc2c(NC3CCN(C(C)C)CC3)nc(C3CCCCC3)nc2cc1OCCCN1CCCC1 | 82.3 | 
CC1(C)Cc2c(-c3ccccc3)c(-c3ccc(Cl)cc3)c(CC(=O)O)n2C1 | 102 | 
C[C@H](c1ccc(F)cc1CCCC(=O)O)N(c1cc(F)ccc1F)[S+](=O)([O-])c1ccc(Cl)cc1 | 93.9 | 
C[C@@H]1[C@H]\2[C@H](O)[C@H]3[C@H](N(C)C)\C(=C(C(N)=O)/C(=O)[C@@]3(O)\C(=C2C(=O)C4=C(O)C=CC=C14)O)O | 98.3 | 
CCN(CC)CCCCNc1nc2cc(Cl)c(Cl)cc2nc1-c1ccc(-c2cccs2)s1 | 92.1 | 
O=C(NCC1CN(c2ccc(N3CCOCC3=O)cc2)C(=O)O1)c1ccc(Cl)s1 (stereo unspecified) | 127 | 
CC(C)(Sc1ccc(CCN(CCCCC2CCCCC2)C(=O)NC2CCCCC2)cc1)C(=O)O | 109 | 
CCOC(=O)C(C)OC1=CC=CC2=C1\C=C/N(CC(=O)NC3=CC=C4OCCOC4=C3)C2=O (stereo unspecified) | 105 | 
CC(NCCc1ccc(O)cc1)C(O)c1ccc(O)cc1 (stereo unspecified) | 124 | 
C=C[C@H]1CN2CCC1C[C@H]2[C@H](O)c1ccnc2ccccc12 (stereo partly specified) | 101 | 
C[C@H](NC(=O)[C@@H](O)c1cc(F)cc(F)c1)C(=O)N[C@@H]1C(=O)N(C)c2ccccc2-c2ccccc21 | 99 | 
CCCNCC(O)COc1ccccc1C(=O)CCc1ccccc1 (stereo unspecified) | 90.5 | 
CCCCCN(C)CCC(O)(P(=O)([O-])O)P(=O)(O)O | 106 | 
CCN1\C=C(C(O)=O)/C(=O)C2=C1C(=C(N3CCNC(C)C3)C(=C2)F)F (stereo unspecified) | 126 | 
Fc1cc(-c2cccc3ncc(-c4cnn(C5CCNCC5)c4)nc23)cc(F)c1CN1CCOCC1 | 108 | 
OC[C@H]1O[C@@H]2[C@@H](OC\3=N\C(=N)\C=C/[N@@]23)[C@@H]1O | 124 | 
CCOC(=O)C/1=C(C)/NC(=S)NC1C2=CC=CC(=C2)O (stereo unspecified) | 118 | 
C/C(O)=C(\C#N)C(=O)Nc1cc(Br)ccc1Br | 101 | 
O=C(CCc1ccc(O)cc1)c1c(O)cc(O)cc1O[C@@H]1O[C@H](CO)[C@@H](O)[C@H](O)[C@H]1O | 98.5 | 
COc1c(C)c2c(c(O)c1C/C=C(\C)CCC(=O)OCCN1CCOCC1)C(=O)OC2 | 112 | 
N=C(N)c1ccc(OCCCCCOc2ccc(C(=N)N)cc2)cc1 | 101 | 
OC1=CC=C(C=C1)C/2=C/C3=C(OC2)C=C(O)C=C3 | 89.4 | 

Compound | viability (top concentration 46.1 µM) | other results
COc1cc(C)c(/C=C/C(C)=C/C=C/C(C)=C/C(=O)O)c(C)c1C | 101 | 
CC(C)(S)[C@@H](N)C(=O)O | 128 | 
OC(=O)\C1=C\N(C2=CC=C(F)C=C2)C3=C(C=C(F)C(=C3)N4CCNCC4)C1=O | 120 | 
O=C1NC(=O)/C(=C/c2ccc3c(c2)OC(F)(F)O3)S1 | 94 | 
COc1cc2nc(-c3cc(F)ccc3O)nc(N[C@@H]3CNC[C@H]3C(C)(C)O)c2cc1OC | 59.9 | 
Nc1n[nH]c2nnc(-c3c(-c4ccccc4)nn4ccccc34)cc12 | 88.7 | 
C#CCN(C)[C@H](C)Cc1ccccc1 | 92.4 | 
Nc1nc(N)c2nc(CNc3ccc(C(=O)NC(CCC(=O)O)C(=O)O)cc3)cnc2n1 (stereo unspecified) | 76.6 | 
CCOc1cc2c(c(F)c1OCC)C(=N)N(CC(=O)c1cc(N3CCOCC3)c(OC)c(C(C)(C)C)c1)C2 | 124 | 
COc1ccc(-c2oc3cc(OC)ccc3c2C(=O)c2ccc(C#N)cc2)cc1 | 142 | 
CC1Cc2ccccc2N1NC(=O)c1ccc(Cl)c([S+](N)(=O)[O-])c1 (stereo unspecified) | 105 | 
COc1cc([C@@H]2c3cc4c(cc3[C@H](O)[C@H]3COC(=O)[C@H]23)OCO4)cc(OC)c1OC | 115 | 
CCc1cc(/C(C)=N/OCc2ccc(C3CCCCC3)c(C(F)(F)F)c2)ccc1CN1CC(C(=O)O)C1 | 116 | 
CC(C)C1CCC(C(=O)N[C@H](Cc2ccccc2)C(=O)O)CC1 (stereo partly specified) | 85.9 | 
CC(=O)[C@H]1CC[C@H]2[C@@H]3CCC4=CC(=O)CC[C@]4(C)[C@H]3CC[C@]12C | 118 | 
O=C(Oc1ccc([N+](=O)[O-])cc1)N1CCN(Cc2cccc(Oc3ccccc3)c2)CC1 | 63.7 | 
Nc1ncnc2c1ncn2[C@@H]1O[C@@H](CO)[C@H](O)[C@@H]1O |  | viability (top concentration 34.6 µM): 118
CNC(=O)c1ccc(N2C(=S)N(c3ccc(C#N)c(C(F)(F)F)c3)C(=O)C2(C)C)cc1F | 119 | 
CC/1=C(\CCN2CCC(CC2)C3=NOC4=C3C=CC(=C4)F)C(=O)N/5CCCCC5=N1 | 114 | 
CNC[C@H](O)c1ccc(O)c(O)c1 |  | viability (top concentration 92.2 µM): 104
CC1=CC=CC=C1N2\C(=N/C3=C(C(=CC=C3)C)C2=O)C[N]4C=NC5=C4N=CN=C5N | 24.1 | 
O=C(NC1CCOCC1)c1ccc(-c2cc(-c3c[nH]nc3-c3ccccn3)ccn2)cc1 | 159 | 
